One data set deals with EZH2. Kind of data set: EZH2 mRNA and protein levels. The class given is cell-based, human. As to the method: FIG. 6A: Putative binding site of miR-141 in EZH2 3′-UTR. […] FIG. 6C is a qPCR analysis of EZH2 mRNA levels in CD44^+ PCa cells. Bars, mean±SD. *P<0.05; **P<0.01. […] Bars, mean±SD. **P<0.01. […] Western blotting was performed in PC3 and Du145 cells transfected with NC (60 nM) or miR-141 (30 or 60 nM) oligos (72 h). Relative protein levels were measured by densitometry and normalized to GAPDH levels (indicated below). […] Du145 cells plated one day before were treated with 1, 2, and 5 μM of DZNep for 96 h and then cells were harvested for invasion assays. **P<0.01. Inset, WB showing reduced EZH2 proteins by DZNep. […] Du145 cells were transfected with 10 nM scramble siRNA (siCon) or EZH2-targeting siRNAs (siEZH2) or siEZH2 plus anti-miR-141 (30 nM). 48 h later, cells were harvested for invasion assays. Bars, mean±SD. **P<0.01. […] Du145 cells were co-transfected with 30 nM NC or miR-141 oligos together with empty vector or pCMV-EZH2 construct. After 48 h, cells were harvested for invasion assay. Bars, mean±SD. **P<0.01.
Total RNA was extracted using microRNA isolation kit (Life Technologies) according to the manufacturer's instructions. microRNA qPCRs were performed using TaqMan microRNA assays (Life Technologies). qPCR data for microRNAs were normalized to RNU48 whereas qPCR data for mRNAs were normalized to GAPDH.
For Boyden Chamber invasion assays, Biocoat Matrigel Invasion Chamber (BD, Franklin Lakes, N.J.) was employed following the manufacturer's instructions. Briefly, 100,000-200,000 of prostate cancer cells after transfection with […]/miR-141 oligos or infection with miR-141 over-expressing lentivirus were seeded into each well. Medium with 20% fetal bovine serum was used in the lower chamber as chemo-attractant. After 20 h, cells were fixed and stained using HEMA stain. Representative images were taken for each membrane and cells were counted. Migration assays were simultaneously performed in control wells using identical protocol with Transwell (Costar; 8 μl PET) without Matrigel. […]

The next data set relates to Human ARPC5 3'-UTR. Kind of data set: 3'-UTR luciferase reporter assay. In kind it is cell-based. As to conditions: Du145 cells; 30 nM miR-141 vs NC oligos. As to the method: (§1) Du145 cells transfected with NC or miR-141 oligos at the two doses and time intervals indicated were used in Western blotting. Indicated below are relative expression levels (normalized to respective GAPDH and compared to NC) of each protein determined by densitometric scanning of the individual bands. […] Bars, mean±SD. *P<0.05; **P<0.01. […] Du145 cells were co-transfected with NC or miR-141 oligos (30 nM) in combination with pcDNA3.1 (control) vector or pcDNA-RAC1 or pcDNA-CDC42 expression vector. After 48 h, cells were harvested for invasion assays. […] Du145 cells were infected with Lenti-141 or control lentivirus (MOI 10, 48 h) and then harvested to measure the Rho GTPase activities. Bars, mean±SD. *P<0.05. […] Du145 cells were transfected with the antisense oligos to NC or miR-141 (anti-141; 30 nM) and then used in invasion assays (FIG. 5E). In FIG. 5F and FIG. 5G Du145 cells were transfected with 10 nM of scramble siRNA control (siCon) or siRNAs targeting RAC1 (FIG. 5F) or CDC42 (FIG. 5G), either alone or in combination of anti-141 (30 nM). 48 h later, cells were harvested for invasion assays. Bars, mean±SD. *P<0.05; **P<0.01.
(§2) The human CD44 3′-UTR was amplified from Du145 genomic DNA using primers 5′-[…]-3′ (SEQ ID NO: 2) and 5′-[…]-3′ (SEQ ID NO: 3), as previously described (13). For site-specific mutagenesis, the region in the CD44 3′-UTR (SEQ ID NO: 4, shown with uracils) complementary to the seed sequence of miR-141 (SEQ ID NO: 1) were mutated (TAGTGTT to GGCGCGG; see FIG. 3D). The human EZH2 3′-UTR was amplified from Du145 genomic DNA using primers 5′-GAGCTC-CATCTGCTACCTCCTCCCC-3′ (SEQ ID NO: 6) and 5′-[…]-3′ (SEQ ID NO: 7). For site-specific mutagenesis, the region complementary to the seed sequence of miR-141 was mutated (AAAGTGTT to TATCACAA; see FIG. 6A). The PCR fragments were cloned into pGEM-T vector (Promega, Madison, Wis.) and sequence confirmed. Cells were plated in 24-well plates and co-transfected, using Lipofectamine 2000, with 1 μg firefly luciferase reporter plasmid and 5 ng Renilla plasmid (phRL-CMV) into which the 3′-UTR fragments were cloned. The luciferase activities were detected using Duo-luciferase reporter assay system (Promega). Human RAC1, CDC42, CDC42EP3, and ARPC5 3′-UTR luciferase reporter constructs were obtained from SwitchGear Genomics (Menlo Park, Calif.) and luciferase activities were measured per the manufacturer's instructions using LightSwitch luciferase assay kit.
For orientation: In a reporter assay the amount or activity of a reporter protein is the signal.

A further data set has as its system Human CDC42EP3 3'-UTR. Kind of data set: 3'-UTR luciferase reporter assay. The class given is cell-based. As to conditions: Du145 cells; 30 nM miR-141 vs NC oligos. As to the method: as §1, §2
Another data set has as its system Human CDC42 3'-UTR. The experiment in a line: 3'-UTR luciferase reporter assay. The class given is cell-based. As to conditions: Du145 cells; 30 nM miR-141 vs NC oligos. As to the method: as §1, §2
The next data set relates to PPC-1 cells. Kind of data set: Clonal and sphere formation assays. The class given is cell-based, human. As to the method: For clonal assays, cultured prostate cancer cells or human prostate cancer cells freshly purified from patient primary tumors were plated at a clonal density (i.e., 100 cells/well) in a 6-well plate. The number of holoclones (33) was counted several days later. For Matrigel-based sphere formation assays, cells in medium were plated (generally 1,000 cells/well) in Matrigel at 1:1 ratio in a total of 100 μl in 96-well plates. Spheres were enumerated 1-2 weeks after plating. For floating sphere formation assays, cells were plated in serum-free epithelial basal medium (PrEBM) supplemented with B27 (Invitrogen), and 20 ng/ml EGF and bFGF in ultra-low attachment (ULA) plate. Floating spheres that arose in 1-2 weeks were counted. For all these experiments, a minimum of triplicate wells was run for each condition and repeat experiments were performed when necessary and feasible.

Take “miR-141: miR-141 mirVana mimics (Life Technologies); microRNA-141 oligonucleotide may have SEQ ID NO: 1; in some experiments over-expressed by lentiviral vectors (UAACACUGUCUGGUAAAGAUGG; listed as RNA, further chemistry not given here) [miR-141 mirVana mimics (Life Technologies); in some experiments over-expressed by lentiviral vectors]”: the “EZH2 RNA level” value in the data set on EZH2 (miR-141 overexpression in prostate cancer cells) was “significantly reduced”. The EZH2 protein level entry in the data set on EZH2 (miR-141 overexpression, PC3 and Du145, 30 or 60 nM, 72 h) is reported as “significantly reduced”. Also, in the data set with Human ARPC5 3'-UTR, the “luciferase activity of ARPC5 3'-UTR construct” value is “inhibited”. The “luciferase activity of CDC42EP3 3'-UTR construct” value in the data set on Human CDC42EP3 3'-UTR is “inhibited”. Further, the “luciferase activity of CDC42 3'-UTR construct” value in the data set on Human CDC42 3'-UTR is “inhibited”. Further, in the data set on PPC-1 cells, the clonal expansion entry is on record as “inhibited” and the sphere formation result is given as “inhibited”.

The record behind these values is US10202604B2, “Methods of using microRNA-141” (Stemirna Therapeutics Co., Ltd., priority 2016, dated 2019).
